# Reference: US20260184692A1, “HETEROCYCLIC COMPOUNDS, PREPARATION METHODS AND USES THEREOF” (InventisBio Co., Ltd., priority 2022, published 2026)
# Tested on: OVCAR3 Cells
# Assay: OVCAR3 Cell Viability Assay (CellTiter-Glo)
# Type: cell-based
# Details: Homo sapiens, OVCAR-3, 144 h, 6 days incubation, read-out: OVCAR3 CTG IC50
# Method: OVCAR3 Cells (ATCC, Cat #HTB-161) were seeded at a density of 2000 cells/well in a 96-well clear bottom plate (Greiner, Cat #655098) in 100 μL of complete media (RPMI1640+20% FBS+0.01 mg/mL human insulin). One hundred microliter of complete media was added into the blank well (column 1) for low control. Cells were allowed to adhere to the plate overnight in the incubator at 37° C., 5% CO2. On the following day, 0.5 μL of serially-diluted compounds were added to the cells (columns 2-10) and incubated for 6 days at 37 C, 5% CO2 (final 0.5% DMSO concentration); 0.5 μL of DMSO solution was added into the wells (column 11) for high control. Cell viability was detected according to the CellTiter-Glo Luminescent Cell Viability Assay Kit (Promega, Cat #G7573). Luminescence was recorded on the Tecan Spark plate reader. Inhibition rate (IR) of the tested compounds was determined by the following formula: IR (%)=(1−(RLUcompound−RLUlow control)/(RLUhigh control−RLUlow control))×100%. The IC50 value was calculated using the non-linear regression equation: Y=Bottom+(Top−Bottom)/(1+10^((Log IC50−X)×HillSlope)), where X is Log of compound concentration, Y is percent inhibition (IR (%)), Top and Bottom are plateaus in same units as Y.
row,SMILES,IC50 [nM]
1,CC(C)[C@H](N)C(=O)OCCS(=O)(=O)Nc1ccc2c(c1)C1(CCC3(CC3)CC1)CN(c1ccc(C#N)c(N3CCC(F)(F)CC3)n1)C2=O [Compound 132],< 200
2,CN(C)c1ccc(N2CC3(CCC4(CC4)CC3)c3cc(NS(=O)(=O)CCO)ccc3C2=O)nc1N1CCC(F)(F)CC1 [Compound 152],< 200
3,N#Cc1ccc(N2CC3(CCC4(CC4)CC3)c3cc(NS(=O)(=O)CC(F)(F)F)ccc3C2=O)nc1N1CCC(F)(F)CC1 [Compound 158],< 200
4,O=C(Nc1ccc2ncn(CC(F)(F)F)c2c1)c1ccc(NS(=O)(=O)CCO)cc1N1CCC2(CC1)CC2 [Compound 2],< 200
5,Cn1ccc(-c2ccc(N3CC4(CCC5(CC5)CC4)c4cc(NS(=O)(=O)CCO)ccc4C3=O)nc2N2CCC(F)(F)CC2)n1 [Compound 142],< 200
6,CCNC(=O)c1ccc(N2CC3(CCC4(CC4)CC3)c3cc(NS(=O)(=O)CCO)ccc3C2=O)nc1NC1CC(F)(F)C1 [Compound 162],< 200
7,CC(C)(C)NS(=O)(=O)c1cccc(N2CC3(CCC4(CC4)CC3)c3cc(NS(=O)(=O)CCO)ccc3C2=O)c1 [Compound 113],< 200
8,CC(C)(C)NS(=O)(=O)c1cc(N2CC3(CCC4(CC4)CC3)c3cc(NS(=O)(=O)CCO)ccc3C2=O)ccc1C#N [Compound 119],< 200
9,O=C1c2ccc(NS(=O)(=O)CCO)cc2C2(CCC3(CC3)CC2)CN1c1cccc(OC2CC(F)(F)C2)n1 [Compound 24],200 to 2000
10,O=C1c2ccc(NS(=O)(=O)CCO)cc2C2(CCC3(CC3)CC2)CN1c1ccc(C(F)(F)F)c(N2CCC(F)(F)CC2)n1 [Compound 154],< 200
11,N#Cc1ccc(N2CC3(CCC4(CC4)CC3)c3cc(NS(=O)(=O)CCO)ccc3C2=O)nc1S(=O)(=O)C1CCCC1 [Compound 100],< 200
12,Cc1cc(-c2ccc(N3CC4(CCC5(CC5)CC4)c4cc(NS(=O)(=O)CCO)ccc4C3=O)nc2N2CCC(F)(F)CC2)ccn1 [Compound 164],< 200
13,CN1CCN(c2nc(N3CC4(CCC5(CC5)CC4)c4cc(NS(=O)(=O)CCO)ccc4C3=O)ccc2F)CC1 [Compound 46],200 to 2000
14,CC1(C)CCC2(CC1)CN(c1ccc(C#N)c(NC3CC(F)(F)C3)n1)C(=O)c1cc(F)c(NS(=O)(=O)CCO)cc12 [Compound 121],< 200
15,CC(c1cccc(N2CC3(CCC4(CC4)CC3)c3cc(NS(=O)(=O)CCO)ccc3C2=O)n1)N1CCC(F)(F)C1 (stereo not shown) [Compound 30],200 to 2000
16,N#Cc1ccc(N2CC3(CCC4(CC4)CC3)c3cc(NS(=O)(=O)CCO)ccc3C2=O)nc1C(=O)N1CCCC1 [Compound 122],200 to 2000
17,Cn1cc(N2CC3(CCC4(CC4)CC3)c3cc(NS(=O)(=O)CCO)ccc3C2=O)nc1N1CCC(F)(F)CC1 [Compound 20],200 to 2000
18,CC1(CNc2nccc(N3CC4(CCC5(CC5)CC4)c4cc(NS(=O)(=O)CCO)ccc4C3=O)n2)COC1 [Compound 96],200 to 2000
19,Cn1ccc(-c2ccc(N3CC4(CCC5(CC5)CC4)c4cc(NS(=O)(=O)CCO)ccc4C3=O)nc2NC2CC(F)(F)C2)n1 [Compound 170],200 to 2000
20,COCCS(=O)(=O)Nc1ccc2c(c1)C1(CCC3(CC3)CC1)CN(c1ccnc(NC3CC(F)(F)C3)n1)C2=O [Compound 148],200 to 2000

row,SMILES,IC50 [nM]
1,O=C1c2ccc(NS(=O)(=O)CCO)nc2C2(CCC3(CC3)CC2)CN1c1ccnc(N2CCC(F)(F)CC2)n1 [Compound 68],> 2000
2,CCS(=O)(=O)Nc1ccc2c(c1)C1(CCC3(CC3)CC1)CN(c1ccc(C#N)c(S(=O)(=O)N3CC(F)(F)C3)c1)C2=O [Compound 118],< 200
3,Cc1cc(N2CC3(CCC4(CC4)CC3)c3cc(NS(=O)(=O)CCO)ccc3C2=O)nc(N2CCC(F)(F)CC2)n1 [Compound 35],200 to 2000
4,Cn1cnc(-c2ccc(N3CC4(CCC5(CC5)CC4)c4cc(NS(=O)(=O)CCO)ccc4C3=O)nc2NC2CC(F)(F)C2)c1 [Compound 169],< 200
5,CN1CC=C(c2ccc(N3CC4(CCC5(CC5)CC4)c4cc(NS(=O)(=O)CCO)ccc4C3=O)nc2N2CCC(F)(F)CC2)CC1 [Compound 176],200 to 2000
6,O=C1c2ccc(NS(=O)(=O)CCO)cc2C2(CCC3(CC3)CC2)CN1c1ccc(F)c(NC2CC(F)(F)C2)n1 [Compound 42],< 200
7,O=C1c2ccc(NS(=O)(=O)CCO)cc2C2(CCC3(CC3)CC2)CN1c1ccc(-c2cc[nH]n2)c(N2CCC(F)(F)CC2)n1 [Compound 180],< 200
8,Cc1ncc(-c2ccc(N3CC4(CCC5(CC5)CC4)c4cc(NS(=O)(=O)CCO)ccc4C3=O)nc2N2CCC(F)(F)CC2)cn1 [Compound 160],< 200
9,CCNC(=O)c1ccc(N2CC3(CCC4(CC4)CC3)c3cc(NS(=O)(=O)CCO)ccc3C2=O)nc1N1CCC(F)(F)CC1 [Compound 144],< 200
10,O=C1c2ccc(NS(=O)(=O)CCO)cc2C2(CCC(=C(F)F)CC2)CN1c1ccnc(N2CCC(F)(F)CC2)n1 (stereo not shown) [Compound 77],200 to 2000
11,Cc1ccc(-c2ccc(N3CC4(CCC5(CC5)CC4)c4cc(NS(=O)(=O)CCO)ccc4C3=O)nc2N2CCC(F)(F)CC2)cn1 [Compound 161],< 200
12,Cc1ccc(N2CC3(CCC4(CC4)CC3)c3cc(NS(=O)(=O)CCO)ccc3C2=O)nc1N1CCC(F)(F)CC1 [Compound 52],< 200
13,CC1(F)CCC2(CC1)CN(c1ccnc(NC3CC(F)(F)C3)n1)C(=O)c1ccc(NS(=O)(=O)CCO)cc12 (stereo not shown) [Compound 112],200 to 2000
14,O=C1c2ccc(NS(=O)(=O)CCO)cc2C2(CCC3(CC3)CC2)CN1c1cccc(CN2CC(F)(F)C2)n1 [Compound 18],< 200
15,O=C1c2ccc(NS(=O)(=O)CCO)cc2C2(CCC3(CC3)CC2)CN1c1ccnc(NCCC(F)(F)F)n1 [Compound 84],< 200
16,N#Cc1ccc(N2CC3(CCC4(CC4)CC3)c3nc(NS(=O)(=O)CCO)ccc3C2=O)nc1N1CCC(F)(F)CC1 [Compound 70],200 to 2000
17,N#Cc1ccc(N2CC3(CCC4(CC4)CC3)c3cc(NS(=O)(=O)CCO)cnc3C2=O)nc1N1CCC(F)(F)CC1 [Compound 59],200 to 2000
18,O=C1c2ccc(NS(=O)(=O)CCO)cc2C2(CCC3(CC3)CC2)CN1c1ccnc(N2CC3CCC2C3)n1 (stereo not shown) [Compound 82],200 to 2000
19,Cc1ncc(N2CC3(CCC4(CC4)CC3)c3cc(NS(=O)(=O)CCO)ccc3C2=O)nc1N1CCC(F)(F)CC1 [Compound 73],< 200
20,CC1(C)CCC2(CC1)CN(c1ccnc(NC3CC(F)(F)C3)n1)C(=O)c1ccc(NS(=O)(=O)CCO)cc12 [Compound 74],< 200

row,SMILES,IC50 [nM]
1,O=C1c2ccc(NS(=O)(=O)CCO)cc2C2(CCC3(CC3)CC2)CN1c1csc(N2CCC(F)(F)CC2)n1 [Compound 36],> 2000
2,O=C1c2ccc(NS(=O)(=O)CCO)cc2C2(CCC3(CC3)CC2)CN1c1ccc(F)c(OC2CC(F)(F)C2)n1 [Compound 61],200 to 2000
3,O=C1c2ccc(NS(=O)(=O)CCO)cc2C2(CCC3(CC3)CC2)CN1c1ccnc(N2CC(F)(F)C2)n1 [Compound 33],200 to 2000
4,N#Cc1ccc(N2CC3(CCC4(CC4)CC3)c3cc(NS(=O)(=O)CCO)ccc3C2=O)nc1NCCC(F)(F)F [Compound 93],< 200
5,CC1(F)CCC2(CC1)CN(c1ccc(C#N)c(NC3CC(F)(F)C3)n1)C(=O)c1ccc(NS(=O)(=O)CCO)cc12 (stereo not shown) [Compound 111],200 to 2000
6,Cc1cc(NC(=O)c2ccc(NS(=O)(=O)CCO)cc2N2CC3CCC(C2)O3)nc(N2CCC(F)(F)CC2)n1 [Compound 10],200 to 2000
7,O=C1c2ccc(NS(=O)(=O)CCO)cc2C2(CCC3(CC3)CC2)CN1c1ccc(C(F)F)c(N2CCC(F)(F)CC2)n1 [Compound 149],< 200
8,O=C1c2ccc(NS(=O)(=O)CCO)cc2C2(CCC3(CC3)CC2)CN1c1ccc(C2CC2)c(N2CCC(F)(F)CC2)n1 [Compound 151],< 200
9,COc1ccc(N2CC3(CCC4(CC4)CC3)c3cc(NS(=O)(=O)CCOC(=O)[C@@H](N)C(C)C)ccc3C2=O)nc1N1CCC(F)(F)CC1 [Compound 134],< 200
10,N#Cc1ccc(N2CC3(CCC4(CCC4)CC3)c3cc(NS(=O)(=O)CCO)ccc3C2=O)nc1NC1CC(F)(F)C1 [Compound 115],< 200
11,CCc1ccc(N2CC3(CCC4(CC4)CC3)c3cc(NS(=O)(=O)CCO)ccc3C2=O)nc1N1CCC(F)(F)CC1 [Compound 150],< 200
12,Cc1cc(NC(=O)c2ccc(NS(=O)(=O)CCO)cc2N2C[C@H]3CCC[C@H]3C2)nc(N2CCC(F)(F)CC2)n1 [Compound 8],< 200
13,O=C1c2ccc(NS(=O)(=O)C(F)(F)F)cc2C2(CCC3(CC3)CC2)CN1c1ccnc(NC2CC(F)(F)C2)n1 [Compound 156],> 2000
14,N#Cc1ccc(N2CC3(CCC(F)(F)CC3)c3cc(NS(=O)(=O)CCO)ccc3C2=O)nc1NC1CC(F)(F)C1 [Compound 104],< 200
15,O=C1c2ccc(NS(=O)(=O)CCO)cc2C2(CCC3(CC3)CC2)CN1c1ccc(OC(F)F)c(N2CCC(F)(F)CC2)n1 [Compound 155],< 200
16,Cn1cnc(-c2ccc(N3CC4(CCC5(CC5)CC4)c4cc(NS(=O)(=O)CCO)ccc4C3=O)nc2N2CCC(F)(F)CC2)n1 [Compound 175],< 200
17,COc1ncc(N2CC3(CCC4(CC4)CC3)c3cc(NS(=O)(=O)CCO)ccc3C2=O)nc1N1CCC(F)(F)CC1 [Compound 146],< 200
18,Cn1cc(-c2ccc(N3CC4(CCC5(CC5)CC4)c4cc(NS(=O)(=O)CCO)ccc4C3=O)nc2NC2CC(F)(F)C2)cn1 [Compound 163],< 200
